For test [1], the system named is P388 mouse leukemia cells. In words: Anti-proliferative activity against cultivated P388 mouse leukemia cells. Type of test: cell-based. Particulars: P388 cells 5×10^4 cells/ml, RPMI 1640, 10% fetal bovine serum, 37° C., read-out: 50% proliferation-inhibitory concentration (IC50). As for the experimental part:
(1) Anti-proliferative activity against cultivated P388 mouse leukemia cells:
More specifically, a medium RPMI 1640 (Rosewell Park Memorial Institute medium 1640) containing a given amount of the 3'-deamino-3'-(2"-substituted-4"-morpholino) anthracycline compound and 10% fetal bovine serum was inoculated with cultivated P388 5×10^4 cells/ml. Incubation was carried out at 37° C. in a CO2 incubator, and the number of the cells in each medium was then counted to determine 50% proliferation-inhibitory concentration (IC50, ng/ml) relative to the control (no test compounds added).

In the next test the test system is P388 leukemia. In words: Antitumor activity against P388 leukemia intraperitoneally transplanted into CDF2 mice. Particulars: for T/C: control = 100. The class given is in vivo. On the procedure: The effects of the test anthracycline compounds are shown below in terms of T/C (%), the survival days of the control mice to which physiological saline solutions was administered being specified as 100.

The mark [2] stands for this setting: 0.25 mg/kg i.v., day 1 and day 5.
Setting [3] is: 0.5 mg/kg i.v., day 1 and day 5.
Setting [4] is: 0.125 mg/kg i.v., day 1 and day 5.
[5] abbreviates: 2 mg/kg i.v., administered only day 1.
Where [6] appears, read: 4 mg/kg i.v., administered only day 1.
Where [7] appears, read: 1 mg/kg i.v., administered only day 1.
Where [8] appears, read: 16 mg/kg i.v., administered only day 1.
The mark [9] stands for this setting: 0.29 mg/kg i.v., day 1 and day 5.
Setting [10] is: 0.44 mg/kg i.v., day 1 and day 5.
[11] abbreviates: 0.66 mg/kg i.v., day 1 and day 5.
Setting [12] is: 0.99 mg/kg i.v., day 1 and day 5.
The mark [13] stands for this setting: 1.48 mg/kg i.v., day 1 and day 5.
Setting [14] is: 2.22 mg/kg i.v., day 1 and day 5.
Where [15] appears, read: 3.33 mg/kg i.v., day 1 and day 5.
The mark [16] stands for this setting: 5.00 mg/kg i.v., day 1 and day 5.

Structures are written as SMILES. Values after ≈ are worked out from the molar mass of the structure shown.

Broadly, the T/C is the ratio of treated to control.

With `CC[C@@]1(O)C[C@H](O[C@H]2C[C@H](N3CCO[C@@H](N=[N+]=[N-])C3)[C@H](O)[C@H](C)O2)c2c(O)c3c(c(O)c2[C@H]1O)C(=O)c1cccc(O)c1C3=O` [3'-Deamino-3'-[(2"R)-2"-azido-4"-morpholino]-13-deoxo-10-hydroxycarminomycin], in test [1], the IC50 was 0.0189 µg/mL (≈ 0.0302 µM). The “Number of cured mice/Number of test mice” value is 0/6 with P388 leukemia (setting [2]); 0/6 in the test with P388 leukemia (setting [3]); 0/6 in the test with P388 leukemia (1 mg/kg i.v., day 1 and day 5); 0/6 in the test with P388 leukemia (2 mg/kg i.v., day 1 and day 5); 0/6 with P388 leukemia (4 mg/kg i.v., day 1 and day 5). Further, the T/C was found to be 115% with P388 leukemia (setting [2]); 163% with P388 leukemia (setting [3]); 196% in the test with P388 leukemia (1 mg/kg i.v., day 1 and day 5); 294% with P388 leukemia (2 mg/kg i.v., day 1 and day 5); 124% in the test on P388 leukemia (4 mg/kg i.v., day 1 and day 5).

Consider `CC[C@@]1(O)C[C@H](O[C@H]2C[C@H](N3CCO[C@@H](OC)C3)[C@H](O)[C@H](C)O2)c2c(O)c3c(c(O)c2[C@H]1O)C(=O)c1cccc(O)c1C3=O` [3'-Deamino-3'-[(2"R)-2"-methoxy-4"-morpholino]-13-deoxo-10-hydroxycarminomycin], for which the IC50 in test [1] came out at 0.009 µg/mL (≈ 0.0146 µM). Besides, the “Number of cured mice/Number of test mice” value with P388 leukemia (setting [4]) is on record as 0/6; with P388 leukemia (setting [2]), 0/6; in the test with P388 leukemia (setting [3]), 0/6; with P388 leukemia (1 mg/kg i.v., day 1 and day 5), 0/6; with P388 leukemia (setting [5]) it was 0/6. For the same compound, the T/C is given as 119% in the test on P388 leukemia (setting [4]); 149% with P388 leukemia (setting [2]); 172% in the test with P388 leukemia (setting [3]); 181% in the test on P388 leukemia (1 mg/kg i.v., day 1 and day 5); 36% in the test on P388 leukemia (setting [5]).

For the compound `CC[C@@]1(O)C[C@H](O[C@H]2C[C@H](N3CCO[C@H](C)C3)[C@H](O)[C@H](C)O2)c2c(O)c3c(c(O)c2[C@H]1O)C(=O)c1cccc(O)c1C3=O` [3'-Deamino-3'-[(2"R)-2"-methyl-4"-morpholino]-13-deoxo-10-hydroxycarminomycin], the IC50 in test [1] came to 0.034 µg/mL (≈ 0.0567 µM).

Regarding `CC[C@@]1(O)C[C@H](O[C@H]2C[C@H](N3CCO[C@@H](NC(=O)C(F)(F)F)C3)[C@H](O)[C@H](C)O2)c2c(O)c3c(c(O)c2[C@H]1O)C(=O)c1cccc(O)c1C3=O` [3'-Deamino-3'-[(2"R)-2"-trifluoroacetamido-4"-morpholino]-13-deoxo-10-hydroxycarminomycin], in test [1], the IC50 is 0.0225 µg/mL (≈ 0.0323 µM). The “Number of cured mice/Number of test mice” value was 0/6 in the test on P388 leukemia (2 mg/kg i.v., day 1 and day 5); 0/6 with P388 leukemia (4 mg/kg i.v., day 1 and day 5); 0/6 in the test on P388 leukemia (8 mg/kg i.v., day 1 and day 5); 2/6 in the test with P388 leukemia (16 mg/kg i.v., day 1 and day 5). Moreover, the T/C stood at 120% in the test on P388 leukemia (2 mg/kg i.v., day 1 and day 5); 150% in the test on P388 leukemia (4 mg/kg i.v., day 1 and day 5); 165% in the test with P388 leukemia (8 mg/kg i.v., day 1 and day 5); 319% in the test with P388 leukemia (16 mg/kg i.v., day 1 and day 5).

Take `CC[C@@]1(O)C[C@H](O[C@H]2C[C@H](N3CCO[C@H](CO)C3)[C@H](O)[C@H](C)O2)c2c(O)c3c(c(O)c2[C@H]1O)C(=O)c1cccc(O)c1C3=O` [3'-Deamino-3'-[(2"S) -2"-hydroxymethyl-4"-morpholino]-13-deoxo-10-hydroxycarminomycin]: in test [1], the IC50 amounted to 0.02 µg/mL (≈ 0.0325 µM).

As to `CC[C@@]1(O)C[C@H](O[C@H]2C[C@H](N3CCO[C@H](NC(C)=O)C3)[C@H](O)[C@H](C)O2)c2c(O)c3c(c(O)c2[C@H]1O)C(=O)c1cccc(O)c1C3=O` [3'-Deamino-3'-[(2"S)-2"-acetamido-4"-morpholino]-13-deoxo-10-hydroxycarminomycin], in test [1], the IC50 turned out to be 0.083 µg/mL (≈ 0.129 µM). Besides, the “Number of cured mice/Number of test mice” value with P388 leukemia (2 mg/kg i.v., day 1 and day 5) is 0/6; in the test with P388 leukemia (4 mg/kg i.v., day 1 and day 5), 0/6; in the test on P388 leukemia (8 mg/kg i.v., day 1 and day 5), 0/6; in the test with P388 leukemia (16 mg/kg i.v., day 1 and day 5), 0/6. The T/C with P388 leukemia (2 mg/kg i.v., day 1 and day 5) is on record as 124%; in the test with P388 leukemia (4 mg/kg i.v., day 1 and day 5), 124%; with P388 leukemia (8 mg/kg i.v., day 1 and day 5) it was 146%; in the test with P388 leukemia (16 mg/kg i.v., day 1 and day 5) it was 340%.

Turning to `CC[C@@]1(O)C[C@H](O[C@H]2C[C@H](N3CCO[C@H](N=[N+]=[N-])C3)[C@H](O)[C@H](C)O2)c2c(O)c3c(c(O)c2[C@H]1O)C(=O)c1cccc(O)c1C3=O` [3'-Deamino-3'-[(2"S)-2"-azido-4"-morpholino]-13-deoxo-10-hydroxycarminomycin], the IC50 in test [1] was 0.024 µg/mL (≈ 0.0383 µM). The “Number of cured mice/Number of test mice” value in the test on P388 leukemia (setting [3]) is 0/6; with P388 leukemia (1 mg/kg i.v., day 1 and day 5), 0/6; in the test on P388 leukemia (2 mg/kg i.v., day 1 and day 5) it was 0/6; with P388 leukemia (setting [6]), 1/6. Moreover, the T/C was 122% in the test with P388 leukemia (setting [3]); 163% in the test on P388 leukemia (1 mg/kg i.v., day 1 and day 5); 231% with P388 leukemia (2 mg/kg i.v., day 1 and day 5); 355% with P388 leukemia (setting [6]).

With `CC[C@@]1(O)C[C@H](O[C@H]2C[C@H](N3CCO[C@H](CCl)C3)[C@H](O)[C@H](C)O2)c2c(O)c3c(c(O)c2[C@H]1O)C(=O)c1cccc(O)c1C3=O` [3'-Deamino-3'-[(2"S)-2"-chloromethyl-4"-morpholino]-13-deoxo-10-hydroxycarminomycin], the IC50 in test [1] came out at 0.036 µg/mL (≈ 0.0568 µM).

Consider `CC[C@@]1(O)C[C@H](O[C@H]2C[C@H](N3CCO[C@H](OC)C3)[C@H](O)[C@H](C)O2)c2c(O)c3c(c(O)c2[C@H]1O)C(=O)c1cccc(O)c1C3=O` [3'-Deamino-3'-[(2"S)-2"-methoxy-4"-morpholino]-13-deoxo-10-hydroxycarminomycin], for which the IC50 in test [1] turned out to be 0.018 µg/mL (≈ 0.0292 µM). Further, the “Number of cured mice/Number of test mice” value in the test on P388 leukemia (setting [4]), in the test with P388 leukemia (setting [2]), with P388 leukemia (setting [3]) and with P388 leukemia (setting [7]) was 0/6 in each case. Besides, the T/C was determined as 103% in the test on P388 leukemia (setting [4]), 182% in the test with P388 leukemia (setting [2]), 196% with P388 leukemia (setting [3]) and 182% in the test with P388 leukemia (setting [7]).

Turning to `CC[C@@]1(O)C[C@H](O[C@H]2C[C@H](N3CCO[C@H](NC(=O)C(F)(F)F)C3)[C@H](O)[C@H](C)O2)c2c(O)c3c(c(O)c2[C@H]1O)C(=O)c1cccc(O)c1C3=O` [3'-Deamino-3'-[(2"S)-2"-trifluoroacetamido-4"-morpholino]-13-deoxo-10-hydroxycarminomycin], the IC50 in test [1] came out at 0.052 µg/mL (≈ 0.0746 µM). The “Number of cured mice/Number of test mice” value in the test with P388 leukemia (2 mg/kg i.v., day 1 and day 5) is 0/6; with P388 leukemia (4 mg/kg i.v., day 1 and day 5), 0/6; in the test on P388 leukemia (8 mg/kg i.v., day 1 and day 5), 0/6; in the test with P388 leukemia (setting [8]) it was 0/6. Further, the T/C with P388 leukemia (2 mg/kg i.v., day 1 and day 5) is 136%; in the test with P388 leukemia (4 mg/kg i.v., day 1 and day 5), 181%; in the test on P388 leukemia (8 mg/kg i.v., day 1 and day 5) it was 229%; in the test with P388 leukemia (setting [8]), 263%.

On to `CC[C@@]1(O)C[C@H](O[C@H]2C[C@H](N3CCOCC3)[C@H](O)[C@H](C)O2)c2c(O)c3c(c(O)c2[C@H]1O)C(=O)c1cccc(O)c1C3=O` [3'Deamino-3'-morpholino-R20X2, reference compound], for which the “Number of cured mice/Number of test mice” value in the test with P388 leukemia (setting [9]), in the test on P388 leukemia (setting [10]), with P388 leukemia (setting [11]), with P388 leukemia (setting [12]), in the test on P388 leukemia (setting [13]) and in the test on P388 leukemia (setting [14]) was 0/6 in each case. The “Number of cured mice/Number of test mice” value in the test on P388 leukemia (setting [15]) and with P388 leukemia (setting [16]) was 0/6 each time. Moreover, the T/C came out at 110% in the test on P388 leukemia (setting [9]); 143% in the test on P388 leukemia (setting [10]); 162% with P388 leukemia (setting [11]); 173% with P388 leukemia (setting [12]); 189% with P388 leukemia (setting [13]); 189% in the test with P388 leukemia (setting [14]). Moreover, the T/C with P388 leukemia (setting [15]) is listed as 240%; in the test with P388 leukemia (setting [16]) it was 135%.

These data come from patent US4959460A, “3'-deamino-3'-(2"-substituted-4"-morpholino)-anthracycline compounds” (priority 1988, dated 1990).
